Assay results published in patent US20110230659A1, “CYCLOBUTYL PURINE DERIVATIVE, ANGIOGENESIS PROMOTING AGENT, LUMEN FORMATION PROMOTING AGENT, NEUROCYTE GROWTH PROMOTING AGENT, AND DRUG” (NATIONAL UNIVERSITY CORPORATION KAGAWA UNIVERSITY, priority 2008, published 2011).
Each block holds one compound with its values, some of them ahead of it.

Legend:
[1] = system: Human umbilical vein endothelial cells (HUVEC); experiment: Measurement of cell migration (CytoSelect 24-well Cell Migration Assay); type: cell-based; conditions: examined in the same manner as in Example 1
Protocol: Measurement of cell migration was carried out in the following manner using CytoSelect 24-well Cell Migration Assay (CBA-100, Cell Biolabs) kits. First, sample solutions were prepared by dissolving 2-Cl—C.OXT-A in physiological saline so as to achieve predetermined concentrations (0.1, 0.5, 1 mmol/l). Then, the sample solutions containing 2-Cl—C.OXT-A at the predetermined concentrations respectively were added to HuMedia-EB2 media (Kurabo) to which 2 v/v % inactivated fetal bovine serum (FBS) had been added so that their concentrations became 10 v/v %. Thus, cell migration media were prepared. The final concentrations of 2-Cl—C.OXT-A in the cell migration media were 10, 50, and 100 μmol/l.
Human umbilical vein endothelial cells (HUVEC) were suspended in a HuMedia-EB2 medium (Kurabo) to which 2 v/v % inactivated fetal bovine serum (FBS) had been added at a density of 0.5×10^6 cells/ml. Thus, a cell suspension was prepared. 300 μl of the cell suspension was added to an upper compartment (i.e., in an insert) of a polycarbonate membrane plate provided in the kit, and 500 μl of the cell migration medium was added to a lower compartment (i.e., in a well) of the plate. Then, the cells were cultured at 37° C. for 24 hours. After the completion of the culture, the membrane on the inner bottom face of the insert was wiped out with a cotton swab to remove the cells on the membrane. Then, cells having migrated to the rear face of the membrane (the membrane on the outer bottom face of the insert) were stained using a staining solution provided in the kit, and then photographed from below the insert. After the photographing, the dye was extracted with an extracting solution provided in the kit, and the absorbance at 560 nm was measured using a microplate reader. As a control, a HuMedia-EB2 medium (Kurabo) to which 2 v/v % inactivated fetal bovine serum (FBS) had been added was used instead of the cell migration medium to carry out the culture, and the cells were stained and the absorbance was measured in the same manner as in the above. Then, using the above equation (I), the relative absorbance in the culture using each of the cell migration media containing 2-Cl—C.OXT-A at the predetermined concentrations was calculated.

[2] = system: human umbilical vein endothelial cells (HUVEC) and normal human dermal fibroblasts; experiment: Measurement of lumen formation (angiogenesis kit, CD31 immunostaining, lumen area); type: cell-based
Protocol: The measurement of lumen formation was carried out in the following manner using commercially available angiogenesis kits (Kurabo), each including human umbilical vein endothelial cells (HUVEC) and normal human dermal fibroblasts. First, sample solutions were prepared by dissolving 2-Cl—C.OXT-A in physiological saline so as to achieve predetermined concentrations (1, 10, 100, 500 μmol/l, 1, 5, 10, 50 mmol/l). Then, the sample solutions containing 2-Cl—C.OXT-A at the predetermined concentrations respectively were added to media provided in the kits so that their concentrations became 10 v/v %. Thus, lumen formation media were prepared. The final concentrations of 2-Cl—C.OXT-A in the lumen formation media were 0.1, 1, 10, 50, 100, 500 μmol/l, 1 and 5 mmol/1.
Using each of the lumen formation media, the human umbilical vein endothelial cells (HUVEC) and the normal human dermal fibroblasts were cultured for 10 days. After the culture, the human umbilical vein endothelial cells (HUVEC) were immunostained using a lumen staining kit (for CD31 staining, Kurabo). Then, using NIH Image (image processing and analysis software), the area of a portion stained by the immunostaining (lumen area) was measured. As a control, a medium provided in the kit was used instead of the lumen formation medium to carry out the culture, and the cells were immunostained and the lumen area was measured in the same manner as in the above. Then, using the following equation (II), the relative value of lumen area in the culture using each of the lumen formation media containing 2-Cl—C.OXT-A at the predetermined concentrations was calculated.
In the present example, the relative value of lumen area was calculated in the same manner as in the lumen formation measurement in Example 1, except that the measurement was carried out with respect to four groups respectively using media Nos. 5 to 8 prepared by adding 2-Cl—C.OXT-A and PD98059 to media provided in the above-described angiogenesis kits (Kurabo) so that their concentrations became as shown in Table 2 below. In the group using the medium No. 7, the culture was conducted using the medium No. 7 from the first to third days of the culture and the medium No. 5 from the fourth to tenth days of the culture, and in the group using the medium No. 8, the culture was conducted using the medium No. 8 from the first to third days of the culture and the medium No. 6 from the fourth to tenth days of the culture.
In the present example, the relative value of lumen area was calculated in the same manner as in the lumen formation measurement in Example 1, except that the measurement was carried out with respect to six groups respectively using media Nos. 15 to 20 prepared by adding 2-Cl—C.OXT-A, VEGF (positive control), and SU5416 to media provided in the above-described angiogenesis kit (Kurabo) so that their concentrations became as shown in Table 4 below. In the group using the medium No. 16, the culture was conducted using the medium No. 16 from the first to third days of the culture and the medium No. 15 from the fourth to tenth days of the culture; in the group using the medium No. 18, the culture was conducted using the medium No. 18 from the first to third days of the culture and the medium No. 17 from the fourth to tenth days of the culture; and in the group using the medium No. 20, the culture was conducted using the medium No. 20 from the first to third days of the culture and the medium No. 19 from the fourth to tenth days of the culture.

[3] = system: Human umbilical vein endothelial cells (HUVEC); experiment: Measurement of cell proliferation (Cell Counting Kit-8); type: cell-based; conditions: examined in the same manner as in Example 1
Protocol: Sample solutions were prepared by dissolving 2-Cl—C.OXT-A in physiological saline so as to achieve predetermined concentrations (0.5, 1, 5, 10, 50, 100 mmol/l). Then, the sample solutions containing 2-Cl—C.OXT-A at the predetermined concentrations respectively were added to HuMedia-EB2 media (Kurabo) to which 2 v/v % inactivated fetal bovine serum (FBS) had been added so that their concentrations became 10 v/v %. Thus, cell proliferation media were prepared. The final concentrations of 2-Cl—C.OXT-A in the cell proliferation media were 50, 100, 500 μmol/l, 1, 5, and 10 mmol/1.
Human umbilical vein endothelial cells (HUVEC) suspended in a HuMedia-EG2 medium (Kurabo) were inoculated into each of gelatin-coated wells of a 96-well plate at a density of 3×10^3 cells per well, and cultured for 24 hours. 24 hours after the start of the culture, the medium was removed, and 100 μl of the cell proliferation medium was added to each well. The cells were cultured for another 48 hours. After the completion of the culture, a color reaction was caused using a Cell Counting Kit-8 (Dojindo Laboratories). 2 hours after the start of the reaction, the absorbance at 450 nm was measured using a microplate reader. As a control, a HuMedia-EB2 medium (Kurabo) to which 2 v/v % inactivated fetal bovine serum (FBS) had been added was used instead of the cell proliferation medium to carry out the culture, and a color reaction was caused and the absorbance was measured in the same manner as in the above. Then, using the following equation (I), the relative absorbance in the culture using each of the cell proliferation media containing 2-Cl—C.OXT-A at the predetermined concentrations was calculated.

ERK = ERK activation (phosphorylation) immunoblot in HUVEC; type: cell-based, human
[4] = system: rat adrenal medulla-derived cell line PC12; experiment: Differentiation of PC12 cells, AChE activity (Ellman's method); type: cell-based; conditions: NGF (positive control), sixth day of culture
Protocol: (§1) Three samples were prepared by adding additives shown in Table 5 below to PBS so as to achieve predetermined concentrations. Also, an evaluation medium was prepared by adding each sample or PBS to DMEM (no serum) so that its concentration became 10 v/v %. Furthermore, as a control medium, a medium containing only DMEM (no serum) was prepared. The PC12 cells were suspended at a density of 5×10^4 cells/ml in DMEM to which 5 v/v % cow serum and 10 v/v % horse serum had been added. Thus, a cell suspension was prepared. 3 ml of the cell suspension was inoculated into a 6 petri dish. […] On the sixth day of the culture, the cells were photographed under a microscope, and the AChE activity was measured according to the Ellman's method (Ellman, G. L., et al., Biochem. Pharmacol., 7, pp. 88-95, (1961)). Specifically, the AChE activity was measured in the following manner. […] The sample solution, 75 μl of 10 mmol/l DTNB, and 3.0 ml of 0.1 mol/l phosphate buffer solution (pH 8.0) were added to a […] for absorbance measurement, and finally, 50 μl of 100 mmol/l acetylthiocholine was added to cause a reaction. The absorbance of the reaction solution at 412 nm was measured for 5 minutes from immediately after the addition of the ace tylthiocholine. From the thus-measured absorbances, the amount of increase in absorbance (C) per minute was determined. […]

[5] = system: rat adrenal medulla-derived cell line PC12; experiment: Differentiation of PC12 cells, morphological change (micrographs); type: cell-based; conditions: medium containing NGF (positive control); sixth day of culture
Protocol: In the present example, using rat adrenal medulla-derived cell line PC12, which is neurocyte model cells, obtained from the RIKEN BioResource Center, the effect of 2-Cl—C.OXT-A of Example 1 on the differentiation of PC12 cells was examined.
as §1, with “prepared.” for “prepared. The PC12 cells were suspended at a density of 5×10^4 cells/ml in DMEM to which 5 v/v % cow serum and 10 v/v % horse serum had been added. Thus, a cell suspension was prepared. 3 ml of the cell suspension was inoculated into a 6 petri dish.”

melting point: 209.4 to 211 °C
Compound: CSc1nc(N)c2ncn(C3CC(CO)C3CO)c2n1 (stereo not drawn) [2-SMe—C.OXT-A, 6-amino-2-thiomethoxy-9-[trans-trans-2,3-bis (hydroxymethyl)cyclobutyl]purine]
cell migration promoting-activity for vascular endothelial cells [1]: exhibited
lumen formation promoting-activity for vascular endothelial cells ([2]; examined in the same manner as in Example 1): exhibited
cell proliferation promoting-activity for vascular endothelial cells [3]: exhibited

Compound: Cc1cc(C)c(/C=C2\C(=O)Nc3ccccc32)[nH]1 [SU5416, reference compound]
lumen formation ([2]; Example 9, medium No. 16: only SU5416 2.5 μmol/l, versus medium No. 15 (control)): decreased
lumen formation promotion by 2-Cl—C.OXT-A in the presence of SU5416 ([2]; Example 9, medium No. 18: 2-Cl—C.OXT-A 10 μmol/l + SU5416 2.5 μmol/l, lumen area increased, rate lower than medium No. 17): not inhibited
lumen area ([2]; Example 9, medium No. 20: VEGF 10 ng/ml + SU5416 2.5 μmol/l): decreased
increase in pERK (ERK; Example 8, medium No. 10: only SU5416 100 nmol/l): not observed
ERK activation by 2-Cl—C.OXT-A in the presence of SU5416 (ERK; Example 8, medium No. 12: 2-Cl—C.OXT-A 100 μmol/l + SU5416 100 nmol/l): not inhibited
increase in pERK by VEGF in the presence of SU5416 (ERK; Example 8, medium No. 14: VEGF 10 ng/ml + SU5416 100 nmol/l): suppressed

Compound: NGF: nerve growth factor, positive control
AChE enzyme activity (relative value) [4]: increased
morphological change of PC12 cells (axon extension) [5]: cells from which linear axons extend were observed

Compound: VEGF
lumen area ([2]; Example 9, medium No. 19: VEGF 10 ng/ml): increased
pERK (ERK; Example 8, medium No. 13: VEGF 10 ng/ml): increased
